From ChEMBL document CHEMBL1140257, “Potential new antitumor agents from an innovative combination of camphorato, a ramification of traditional Chinese medicine, with a platinum moiety” (Bioorg Med Chem Lett, 2005)

Legend:
[1] = test system: A549; assay: In vitro Inhibitory Concentration against A549 human lung carcinoma cell line; Tested by sulforhodamine B colorimetric assay; assay type: functional, cell-based
[2] = In vitro Inhibitory concentration against 3AO human ovarian carcinoma cell line; Tested by sulforhodamine B colorimetric assay; assay type: functional
[3] = test system: HL-60; assay: In vitro Inhibitory concentration against HL-60 human leukemia cell line; Tested by trypan blue exclusion test; assay type: functional, cell-based
[4] = test system: Bel-7402; assay: In vitro Inhibitory concentration against BEL-7402 human hepatocarcinoma cell line; Tested by sulforhodamine B colorimetric assay; assay type: functional, cell-based
[5] = test system: Homo sapiens; assay: Ratio of TRTV and CRTV at 9 (mg/kgper dose) in LS-174T human colon carcinoma implanted in mice; (TRTV=relative tumor volume of the treated group; CRTV=relative tumor volume of the control group); assay type: functional, organism-based
[6] = test system: Homo sapiens; assay: In vivo antitumor activity against LS-174T human colon carcinoma in mice at 6 (mg/kgper dose); assay type: functional, organism-based
[7] = test system: Homo sapiens; assay: Ratio of TRTV and CRTV at 6 (mg/kgper dose) in LS-174T human colon carcinoma implanted in mice; (TRTV=relative tumor volume of the treated group; CRTV=relative tumor volume of the control group); assay type: functional, organism-based
[8] = test system: Homo sapiens; assay: In vivo antitumor activity against LS-174T human colon carcinoma in mice at 9 (mg/kgper dose); assay type: functional, organism-based

| Sequence | IC50 [1] | IC50 [2] | IC50 [3] | IC50 [4] | T/C [5] | Inhibition tumor index [6] | T/C [7] | Inhibition tumor index [8] |
| --- | --- | --- | --- | --- | --- | --- | --- | --- |
| CARBOPLATIN | 42300 nM | 29100 nM | 2860 nM | 36100 nM |  |  |  |  |
| CISPLATIN | 2230 nM | 470 nM | 330 nM | 770 nM |  |  |  |  |
| OXALIPLATIN |  |  |  |  | 50.8% | 24% | 87.4% | 51% |
